According to publication PMC6691587, “New CXCR1/CXCR2 inhibitors represent an effective treatment for kidney or head and neck cancers sensitive or refractory to reference treatments” (Theranostics, 2019):
“Also recorded” adds a separate entry of the source.

What was measured:
TF and CC cells = assay: FACS analysis of apoptotic markers, primary tumor cells; format: cell-based; details: C29 at 1 µmol/L
Procedure: Apoptosis analysis: After stimulation, cells were washed with ice-cold PBS and were stained with the annexin-V-fluo staining kit (Roche, Meylan, France) according to the manufacturer's procedure. Fluorescence was measured using the FL2 (AV) and FL3 (propidium iodide, PI) channels of a fluorescence-activated cell sorter apparatus (Calibur cytometer).

[1] = system: sunitinib-resistant 786-O cells (786R); assay: XTT cell viability assay, sunitinib-resistant 786-O cells; format: cell-based, human; details: 1 to 10 µM 48 h, 2.5 µM 24 to 96 h
Procedure: Fifty microliters of sodium 3′-[1-phenylaminocarbonyl)-3,4-tetrazolium]-bis(4-methoxy-6-nitro) benzene sulfonic acid hydrate (XTT) reagent was added to each well. The assay is based on the cleavage of the yellow tetrazolium salt XTT to form an orange formazan dye by metabolically active cells. This bio-reduction occurs in viable cells only and is related to NAD(P)H production through glycolysis. Therefore, the amount of formazan dye measured at 490 nm directly correlated with the number of metabolically active cells reflecting cell proliferation and viability. Each assay was performed in quadruplicate.

[2] = In vitro (in cellulo) stability assay; format: in vitro ADME, human; details: 786-O cells, 2.5 µM, 24 h at room temperature, UPLCMS/MS
Procedure: The in vitro stability was determined as followed: 786-O cells were treated with 2.5 µM of compound C29 for the defined time, then lysed with methanol. The lysates were filtered and analyzed by UPLCMS/MS.

[3] = system: ERK/MAP Kinase signaling pathway; assay: p-ERK immunoblotting in HuVEC; format: cell-based, human; details: 5 µM C29 1 h, CXCL5 50 ng/ml 10 min
Procedure: Cells were lysed in buffer containing 3% SDS, 10% glycerol and 0.825 mM Na2HPO4. 30 to 50 μg of proteins separated on 10% SDS-PAGE, transferred onto a PVDF membrane and then exposed to the appropriate antibodies. Proteins were visualized with the ECL system using horseradish peroxidase-conjugated anti-rabbit or anti-mouse antibodies.

For O=C(Nc1cccc(Cl)c1)Nc1nc2ccc([N+](=O)[O-])cc2s1 [C29], the “apoptotic markers in TF and CC cells” value (TF and CC cells) was “detected apoptotic markers”, the “effect on cell viability of sunitinib-resistant 786-O cells” value [1] was “conserved” and the “stability in cellulo (degradation)” value [2] was “No degradation; also recorded: absence of degradation”. For the same compound, the “basal and CXCL5-dependent ERK/MAP Kinase signaling (p-ERK)” value [3] was “inhibition”.
